Patent publication US9370185B2, “Herbicidal composition” (ISHIHARA SANGYO KAISHA, LTD., priority 2011, dated 2016)

Experiments:
Assay type in all cases: in vivo
[1] = test system: black nightshade (Solanum nigrum L.); experiment: Test Example 1: foliar treatment of black nightshade, visual growth inhibition; conditions: foliar treatment at 2.3 to 2.5 leaf stage, 21st day after treatment, read-out: Growth Inhibition Rate of Black nightshade (%) Measured Value
Method: Upland field soil was put into a 1/1,000,000-ha pot, and seeds of black nightshade (Solanum nigrum L.) were sown. When the black nightshade reached the 2.3 to 2.5 leaf stage, prescribed amounts of a water dispersible granules containing flazasulfuron as an active ingredient (trade name: SHIBAGEN DF, manufactured by Ishihara Sangyo Kaisha, Ltd.) and a wettable powder containing pyroxasulfone as an active ingredient were diluted with water (corresponding to 1,000 L/ha) containing 0.05% by volume of an agricultural adjuvant (trade name: KUSARINOH, manufactured by NIHON NOHYAKU Co., Ltd.) and applied for foliar treatment by a small sprayer.
On the 21st day after the treatment, the state of growth of the black nightshade was visually observed and examined, followed by evaluation according to the following evaluation criteria. A growth inhibition rate (%) (measured value) and a growth inhibition rate (%) (calculated value) as calculated according to the foregoing Colby's method are shown in Table 1.
(§1) Growth inhibition rate (%)=weed control rate of from 0% (equivalent to the non-treated plot) to 100% (complete kill)

[2] = test system: crabgrass (Digitaria sanguinalis (L.) Scop.); experiment: Test Example 2: foliar treatment of crabgrass, visual growth inhibition; conditions: foliar treatment at 4.0 to 4.5 leaf stage, 21st day after treatment, read-out: Growth Inhibition Rate of Crabgrass (%) Measured Value
Method: as §1
Upland field soil was put into a 1/1,000,000-ha pot, and seeds of crabgrass (Digitaria sanguinalis (L.) Scop.) were sown. When the crabgrass reached the 4.0 to 4.5 leaf stage, prescribed amounts of SHIBAGEN DF (trade name) and a wettable powder containing pyroxasulfone as an active ingredient were diluted with water (corresponding to 1,000 L/ha) containing 0.05% by volume of KUSARINOH (trade name) and applied for foliar treatment by a small sprayer.
On the 21st day after the treatment, the state of growth of the crabgrass was visually observed and examined.

[3] = test system: velvetleaf (Abutilon theophrasti Medic.); experiment: Test Example 3: soil treatment, velvetleaf, visual growth inhibition; conditions: 24 h, soil treatment one day after sowing, 21st day after treatment, read-out: Growth Inhibition Rate of Velvetleaf (%) Measured Value
Method: as §1
(§2) Upland field soil was put into a 1/1,000,000-ha pot, and seeds of velvetleaf (Abutilon theophrasti Medic.) were sown. After one day, prescribed amounts of SHIBAGEN DF (trade name) and a wettable powder containing pyroxasulfone as an active ingredient were diluted with water (corresponding to 1,000 L/ha) and applied for soil treatment by a small sprayer.
On the 21st day after the treatment, the state of growth of the velvetleaf was visually observed and examined.

[4] = test system: black nightshade (Solanum nigrum L.); experiment: Test Example 5: soil treatment, black nightshade, visual growth inhibition; conditions: 24 h, soil treatment one day after sowing, 14th day after treatment, read-out: Growth Inhibition Rate of Black nightshade (%) Measured Value
Method: as §1
as §2, with “1/300,000-ha” for “1/1,000,000-ha”, “black nightshade (Solanum nigrum L.)” for “velvetleaf (Abutilon theophrasti Medic.)”
On the 14th day after the treatment, the state of growth of the black nightshade was visually observed and examined.

[5] = test system: wild oat (Avena fatua L.); experiment: Test Example 6: soil treatment, wild oat, visual growth inhibition; conditions: 24 h, soil treatment one day after sowing, 28th day after treatment, read-out: Growth Inhibition Rate of Wild oat (%) Measured Value
Method: as §1
as §2, with “1/300,000-ha” for “1/1,000,000-ha”, “wild oat (Avena fatua L.)” for “velvetleaf (Abutilon theophrasti Medic.)”
On the 28th day after the treatment, the state of growth of the wild oat was visually observed and examined.

[6] = test system: common lambsquarters (Chenopodium album L.); experiment: Test Example 4: soil treatment, common lambsquarters, visual growth inhibition; conditions: 24 h, soil treatment one day after sowing, 27th day after treatment, read-out: Growth Inhibition Rate of Common lambsquarters (%) Measured Value
Method: as §1
Upland field soil was put into a 1/1,000,000-ha pot, and seeds of common lambsquarters (Chenopodium album L.) were sown. After one day, prescribed amounts of a water-based suspension containing nicosulfuron as an active ingredient and a wettable powder containing pyroxasulfone as an active ingredient were diluted with water (corresponding to 300 L/ha) and applied for soil treatment by a small sprayer.
On the 27th day after the treatment, the state of growth of the common lambsquarters was visually observed and examined.

[7] = test system: velvetleaf (Abutilon theophrasti Medic.); experiment: Test Example 7: soil treatment, velvetleaf, visual growth inhibition; conditions: 24 h, soil treatment one day after sowing, 28th day after treatment, read-out: Growth Inhibition Rate of Velvetleaf (%) Measured Value
Method: as §1
as §2, with “1/300,000-ha” for “1/1,000,000-ha”, “an oil-based suspension” for “SHIBAGEN DF”, “name: ONEHOPE NYUZAI, manufactured by Ishihara Sangyo Kaisha, Ltd.) containing nicosulfuron as an active ingredient” for “name)”
On the 28th day after the treatment, the state of growth of the velvetleaf was visually observed and examined.

Structure (SMILES) | inhibition at 12.5 g/ha ([1]; dose 12.5 g/ha) [%] | inhibition at 50 g/ha ([2]; dose 50 g/ha) [%] | inhibition at 50 g/ha ([3]; dose 50 g/ha) [%] | inhibition at 25 g/ha ([4]; dose 25 g/ha) [%] | inhibition at 50 g/ha [4] [%] | inhibition at 100 g/ha ([4]; dose 100 g/ha) [%] | inhibition at 100 g/ha ([5]; dose 100 g/ha) [%] | inhibition at 25 g/ha ([1]; dose 25 g/ha) [%] | inhibition at 25 g/ha ([2]; dose 25 g/ha) [%] | inhibition at 200 g/ha ([2]; dose 200 g/ha) [%] | inhibition at 12.5 g/ha ([3]; dose 12.5 g/ha) [%] | inhibition at 125 g/ha ([6]; dose 125 g/ha) [%] | inhibition at 150 g/ha ([4]; dose 150 g/ha) [%] | inhibition at 300 g/ha ([4]; dose 300 g/ha) [%] | inhibition at 12.5 g/ha ([5]; dose 12.5 g/ha) [%] | inhibition at 50 g/ha ([7]; dose 50 g/ha) [%] | inhibition at 100 g/ha [7] [%] | inhibition at 300 g/ha ([7]; dose 300 g/ha) [%] | inhibition at 30 g/ha ([6]; dose 30 g/ha) [%] | inhibition at 20 g/ha ([7]; dose 20 g/ha) [%]
COc1cc(OC)nc(NC(=O)NS(=O)(=O)c2ncccc2C(F)(F)F)n1 [flazasulfuron, 1-(4,6-dimethoxypyrimidin-2-yl)-3-(3-trilfuoromethyl-2-pyridylsulfony)urea] | 33 | 70 | 94 | 50 | 60 | 80 | 85 |  |  |  |  |  |  |  |  |  |  |  |  | 
Cn1nc(C(F)(F)F)c(CS(=O)(=O)C2=NOC(C)(C)C2)c1OC(F)F [pyroxasulfone, 3-[5-(difluoromethoxy)-1-methyl-3-(trifluoromethyl)pyrazol-4-ylmethylsulfonyl]-4,5-dihydro-5,5-dimethyl-1,2-oxazole] |  |  |  |  | 20 |  |  | 20 | 0 | 40 | 13 | 90 | 30 | 30 | 0 | 40 | 70 | 80 |  | 
COc1cc(OC)nc(NC(=O)NS(=O)(=O)c2ncccc2C(=O)N(C)C)n1 [nicosulfuron, 2-(4,6-dimethoxypyrimidin-2-ylcarbamoylsulfamoyl)-N,N-dimethylnicotinamide] |  |  |  |  |  |  |  |  |  |  |  |  |  |  |  |  | 10 |  | 35 | 0
